Measured values from patent US20260077047A1, “CANCER THERAPY” (TURBINE SIMULATED CELL TECHNOLOGIES LTD, priority 2022, published 2026).

Assays:
Assay in all cases: ATM inhibition viability assay (CTG) on cells ± NEK-1 knockout
Format in all cases: cell-based
Conditions in all cases: AZD1390 10 μM-0.00152 μM, 7 days, normalized to DMSO
[1] = tested on: Daoy cells ± NEK-1 knockout
Method: (§1) • i. Adhered cells were washed with 1 mL DPBS and trypsinised by addition of trypsin to 0.05% w/v and incubation under standard conditions. • ii. 1 mL cell culture medium was added to the detached cells to inhibit trypsin and suspended cells were centrifuged at 200×g for 5 minutes at room temperature. • iii. The supernatant was discarded and the cells were resuspended in 1 ml cell culture medium and exact cell number was determined using hemocytometer after Trypan blue staining. • iv. Cells were seeded according to table 5 in 90 μl/well in opaque 96-well plates in triplicate. Cells were grown overnight under standard conditions in complete culture medium (see 1c) […].
(§2) • v. Cells were treated with AZD1390 over the concentration range 10 μM-0.00152 μM, prepared by 10-point 3× serial dilutions from a 10 mM DMSO stock. Cells were incubated under standard conditions with the compounds for 7 days with refresh of the medium and drug twice a week. • vi. After the 7 day incubation, CGT assays were performed to assess cell viability.
(§3) Data showing cell viability for NEK1 knockout cell lines and NT cell lines are shown in FIGS. 4A-D. Data are normalized relative to cells treated with DMSO only.

[2] = tested on: HSC-2 cells ± NEK-1 knockout
Method: as §1, §2, §3

[3] = tested on: HCC1806 cells ± NEK-1 knockout
Method: as §1, §2, §3

Measured: effect on cell viability when combined with a NEK-1 knockout

CC(C)n1c(=O)n(C)c2cnc3cc(F)c(-c4ccc(OCCCN5CCCCC5)nc4)cc3c21 [AZD1390]
synergistic effect: all assays above
